Experimental data published in BindingDB's records for doi:10.1021/jm00049a010 (University of Arizona, 1994).

assay: Binding affinity at delta opioid receptor in guinea pig brain by [3H]c[D-Pen2, p-Cl-Phe4, D-Pen5]-enkephalin displacement.

SMILES	IC50
CC[C@H](C)[C@@H]1NC(=O)[C@H](CCCN=C(N)N)NC(=O)[C@H](CCCN=C(N)N)NC(=O)[C@@H](NC(=O)[C@H](Cc2ccccc2)NC(=O)CNC(=O)CNC(=O)[C@@H](N)Cc2ccc(O)cc2)CSSC(C)(C)[C@@H](C(N)=O)NC(=O)[C@@H]2CCCN2C(=O)[C@H](CCCN=C(N)N)NC1=O [Tyr-Gly-Gly-Phe-D-Cys-Arg-Arg-Ile-Arg-Pro-Cys-NH2]	16 nM
CC[C@H](C)[C@@H]1NC(=O)[C@H](CCCN=C(N)N)NC(=O)[C@H](CCCN=C(N)N)NC(=O)[C@H](NC(=O)[C@H](Cc2ccccc2)NC(=O)CNC(=O)CNC(=O)[C@@H](N)Cc2ccc(O)cc2)CSSC[C@@H](C(N)=O)NC(=O)[C@@H]2CCCN2C(=O)[C@H](CCCN=C(N)N)NC1=O	1000 nM
CC[C@H](C)[C@@H]1NC(=O)[C@H](CCCN=C(N)N)NC(=O)[C@H](CCCN=C(N)N)NC(=O)[C@H](NC(=O)[C@H](Cc2ccccc2)NC(=O)CNC(=O)CNC(=O)[C@@H](N)Cc2ccc(O)cc2)C(C)(C)SSC[C@@H](C(N)=O)NC(=O)[C@@H]2CCCN2C(=O)[C@H](CCCN=C(N)N)NC1=O [Tyr-Gly-Gly-Phe-D-Pen-Arg-Arg-Ile-Arg-Pro-Pen-NH2]	2000 nM
CC[C@H](C)[C@@H]1NC(=O)[C@H](CCCN=C(N)N)NC(=O)[C@H](CCCN=C(N)N)NC(=O)[C@H](NC(=O)[C@H](Cc2ccccc2)NC(=O)CNC(=O)CNC(=O)[C@@H](N)Cc2ccc(O)cc2)CSSC[C@H](C(N)=O)NC(=O)[C@@H]2CCCN2C(=O)[C@H](CCCN=C(N)N)NC1=O [Tyr-Gly-Gly-Phe-D-Cys-Arg-Arg-Ile-Arg-Pro-D-Cys-NH2]	1030 nM
CC[C@H](C)[C@@H]1NC(=O)[C@H](CCCN=C(N)N)NC(=O)[C@H](CCCN=C(N)N)NC(=O)[C@H](NC(=O)[C@H](Cc2ccccc2)NC(=O)CNC(=O)CNC(=O)[C@@H](N)Cc2ccc(O)cc2)CSSC(C)(C)[C@H](C(N)=O)NC(=O)[C@@H]2CCCN2C(=O)[C@H](CCCN=C(N)N)NC1=O [Tyr-Gly-Gly-Phe-D-Cys-Arg-Arg-Ile-Arg-Pro-D-Pen-NH2]	1370 nM
CC[C@H](C)[C@@H]1NC(=O)[C@H](CCCN=C(N)N)NC(=O)[C@H](CCCN=C(N)N)NC(=O)[C@@H](NC(=O)[C@H](Cc2ccccc2)NC(=O)CNC(=O)CNC(=O)[C@@H](N)Cc2ccc(O)cc2)C(C)(C)SSC[C@H](C(N)=O)NC(=O)[C@@H]2CCCN2C(=O)[C@H](CCCN=C(N)N)NC1=O [Tyr-Gly-Gly-Phe-Pen-Arg-Arg-Ile-Arg-Pro-D-Pen-NH2]	232 nM
CC[C@H](C)[C@@H]1NC(=O)[C@H](CCCN=C(N)N)NC(=O)[C@H](CCCN=C(N)N)NC(=O)[C@@H](NC(=O)[C@H](Cc2ccccc2)NC(=O)CNC(=O)CNC(=O)[C@@H](N)Cc2ccc(O)cc2)CSSC[C@H](C(N)=O)NC(=O)[C@@H]2CCCN2C(=O)[C@H](CCCN=C(N)N)NC1=O	14 nM
CC[C@H](C)[C@@H]1NC(=O)[C@H](CCCN=C(N)N)NC(=O)[C@H](CCCN=C(N)N)NC(=O)[C@@H](NC(=O)[C@H](Cc2ccccc2)NC(=O)CNC(=O)CNC(=O)[C@@H](N)Cc2ccc(O)cc2)CSSC(C)(C)[C@H](C(N)=O)NC(=O)[C@@H]2CCCN2C(=O)[C@H](CCCN=C(N)N)NC1=O [Tyr-Gly-Gly-Phe-D-Cys-Arg-Arg-Ile-Arg-Pro-Pen-NH2]	319 nM
CC[C@H](C)[C@@H]1NC(=O)[C@H](CCCN=C(N)N)NC(=O)[C@H](CCCN=C(N)N)NC(=O)[C@@H](NC(=O)[C@H](Cc2ccccc2)NC(=O)CNC(=O)CNC(=O)[C@@H](N)Cc2ccc(O)cc2)C(C)(C)SSC[C@@H](C(N)=O)NC(=O)[C@@H]2CCCN2C(=O)[C@H](CCCN=C(N)N)NC1=O [Tyr-Gly-Gly-Phe-D-Pen-Arg-Arg-Ile-Arg-Pro-Cys-NH2]	242 nM
CC[C@H](C)[C@@H]1NC(=O)[C@H](CCCN=C(N)N)NC(=O)[C@H](CCCN=C(N)N)NC(=O)[C@H](NC(=O)[C@H](Cc2ccccc2)NC(=O)CNC(=O)CNC(=O)[C@@H](N)Cc2ccc(O)cc2)C(C)(C)SSC(C)(C)[C@@H](C(N)=O)NC(=O)[C@@H]2CCCN2C(=O)[C@H](CCCN=C(N)N)NC1=O [Tyr-Gly-Gly-Phe-Pen-Arg-Arg-Ile-Arg-Pro-Cys-NH2]	1360 nM
CC[C@H](C)[C@@H]1NC(=O)[C@H](CCCNC(=N)N)NC(=O)[C@H](CCCNC(=N)N)NC(=O)[C@@H](NC(=O)[C@H](Cc2ccccc2)NC(=O)CNC(=O)CNC(=O)[C@@H](N)Cc2ccc(O)cc2)CSSC[C@@H](C(N)=O)NC(=O)[C@@H]2CCCN2C(=O)[C@H](CCCNC(=N)N)NC1=O	1740 nM
CC[C@H](C)[C@@H]1NC(=O)[C@H](CCCN=C(N)N)NC(=O)[C@H](CCCN=C(N)N)NC(=O)[C@H](NC(=O)[C@H](Cc2ccccc2)NC(=O)CNC(=O)CNC(=O)[C@@H](N)Cc2ccc(O)cc2)C(C)(C)SSC[C@H](C(N)=O)NC(=O)[C@@H]2CCCN2C(=O)[C@H](CCCN=C(N)N)NC1=O [Tyr-Gly-Gly-Phe-D-Pen-Arg-Arg-Ile-Arg-Pro-D-Cys-NH2]	390 nM
CC[C@H](C)[C@@H]1NC(=O)[C@H](CCCN=C(N)N)NC(=O)[C@H](CCCN=C(N)N)NC(=O)[C@@H](NC(=O)[C@H](Cc2ccccc2)NC(=O)CNC(=O)CNC(=O)[C@@H](N)Cc2ccc(O)cc2)C(C)(C)SSC(C)(C)[C@@H](C(N)=O)NC(=O)[C@@H]2CCCN2C(=O)[C@H](CCCN=C(N)N)NC1=O	245 nM
CC[C@H](C)[C@@H]1NC(=O)[C@H](CCCN=C(N)N)NC(=O)[C@H](CCCN=C(N)N)NC(=O)[C@H](NC(=O)[C@H](Cc2ccccc2)NC(=O)CNC(=O)CNC(=O)[C@@H](N)Cc2ccc(O)cc2)C(C)(C)SSC(C)(C)[C@H](C(N)=O)NC(=O)[C@@H]2CCCN2C(=O)[C@H](CCCN=C(N)N)NC1=O [Tyr-Gly-Gly-Phe-D-Pen-Arg-Arg-Ile-Arg-Pro-D-Pen-NH2]	1910 nM
CC[C@H](C)[C@@H]1NC(=O)[C@H](CCCN=C(N)N)NC(=O)[C@H](CCCN=C(N)N)NC(=O)[C@@H](NC(=O)[C@H](Cc2ccccc2)NC(=O)CNC(=O)CNC(=O)[C@@H](N)Cc2ccc(O)cc2)C(C)(C)SSC(C)(C)[C@H](C(N)=O)NC(=O)[C@@H]2CCCN2C(=O)[C@H](CCCN=C(N)N)NC1=O [Tyr-Gly-Gly-Phe-Pen-Arg-Arg-Ile-Arg-Pro-D-Cys-NH2]	717 nM
